What all share (format): functional, cell-based
The target in data set [1] is T1, ATP-dependent translocase ABCB1 (Homo sapiens, UniProt P08183). Put plainly: TP_TRANSPORTER: inhibition of Taxol transepithelial transport (basal to apical)(Taxol: 0.04-0.06 uM, Tween 80: 0.05 %) in Caco-2 cells. In general terms: Passage across Caco-2 layers is used to estimate intestinal permeability.
For data set [2], the target named is T1, ATP-dependent translocase ABCB1. Nature of the data set: TP_TRANSPORTER: inhibition of Taxol transepithelial transport (basal to apical)(Taxol: 0.04-0.06 uM, Tween 80: 0.05 %) in MDR1-expressing MDCK cells. The note with it: dog.
For data set [3] the target is unchanged. Put plainly: TP_TRANSPORTER: inhibition of Taxol transepithelial transport (basal to apical)(Taxol: 0.04-0.06 uM, Cremophor EL: 0.1 %) in Caco-2 cells.
The target is the same in data set [4]. Nature of the data set: TP_TRANSPORTER: inhibition of Taxol transepithelial transport (basal to apical)(Taxol: 0.04-0.06 uM, Cremophor EL: 0.1 %) in MDR1-expressing MDCK cells. The note with it: dog.
The target is the same in data set [5]. Put plainly: TP_TRANSPORTER: inhibition of Taxol transepithelial transport (basal to apical) (Taxol: 0.04-0.06 uM, PEG-300: 20 %) in MDR1-expressing MDCK cells. The note with it: dog.
For data set [6] the target is unchanged. Nature of the data set: TP_TRANSPORTER: inhibition of Taxol transepithelial transport (basal to apical) (Taxol: 0.04-0.06 uM, PEG-300: 20 %) in Caco-2 cells.

T1 sequence (P08183 whole entry): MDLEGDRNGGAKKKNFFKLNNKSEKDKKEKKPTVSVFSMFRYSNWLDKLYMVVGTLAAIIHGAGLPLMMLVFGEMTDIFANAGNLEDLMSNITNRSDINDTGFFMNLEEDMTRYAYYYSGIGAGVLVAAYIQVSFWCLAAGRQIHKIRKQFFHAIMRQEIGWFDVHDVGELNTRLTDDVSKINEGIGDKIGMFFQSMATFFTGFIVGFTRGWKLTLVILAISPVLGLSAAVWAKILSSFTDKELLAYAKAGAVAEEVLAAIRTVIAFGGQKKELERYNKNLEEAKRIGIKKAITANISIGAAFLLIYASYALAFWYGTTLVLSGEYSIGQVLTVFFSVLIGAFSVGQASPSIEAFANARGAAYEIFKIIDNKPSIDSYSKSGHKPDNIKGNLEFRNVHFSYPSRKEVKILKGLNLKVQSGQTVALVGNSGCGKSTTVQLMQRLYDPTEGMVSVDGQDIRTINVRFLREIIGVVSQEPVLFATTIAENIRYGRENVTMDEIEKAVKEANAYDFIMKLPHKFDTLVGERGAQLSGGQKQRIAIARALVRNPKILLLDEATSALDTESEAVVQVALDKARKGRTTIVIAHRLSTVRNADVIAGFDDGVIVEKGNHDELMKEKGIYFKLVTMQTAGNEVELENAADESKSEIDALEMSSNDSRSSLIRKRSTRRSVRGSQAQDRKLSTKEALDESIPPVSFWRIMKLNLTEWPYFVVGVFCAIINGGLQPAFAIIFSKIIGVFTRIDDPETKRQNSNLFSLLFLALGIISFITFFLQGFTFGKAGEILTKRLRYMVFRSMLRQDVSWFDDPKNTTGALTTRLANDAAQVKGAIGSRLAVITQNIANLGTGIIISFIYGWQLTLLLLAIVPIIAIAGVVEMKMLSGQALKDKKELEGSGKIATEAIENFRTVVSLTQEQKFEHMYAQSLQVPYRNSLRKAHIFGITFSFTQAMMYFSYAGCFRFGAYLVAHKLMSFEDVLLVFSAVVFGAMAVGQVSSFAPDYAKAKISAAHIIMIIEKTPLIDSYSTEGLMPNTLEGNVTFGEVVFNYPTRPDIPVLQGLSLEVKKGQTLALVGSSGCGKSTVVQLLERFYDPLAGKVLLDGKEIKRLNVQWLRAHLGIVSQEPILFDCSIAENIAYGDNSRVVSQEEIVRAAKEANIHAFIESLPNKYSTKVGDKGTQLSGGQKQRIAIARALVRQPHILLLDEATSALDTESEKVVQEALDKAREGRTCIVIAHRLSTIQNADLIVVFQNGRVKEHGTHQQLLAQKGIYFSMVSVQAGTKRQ

As for `CCCCCCCC/C=C\CCCCCCCC(=O)OCCOCC(OCCO)C1OCC(OCCO)C1OCCO` (stereo unspecified) [TWEEN 80], the Activity result in data set [1] is “inhibitor [+]”; in data set [2] it was “is not an inhibitor [-]”.

Consider CREMOPHOR EL, for which the Activity entry in data set [3] is “inhibitor [+]”; in data set [4], “is not an inhibitor [-]”.

As for PEG 300, the Activity result in data set [5] and in data set [6] was “inhibitor [+]” each time.

The values are drawn from ChEMBL document CHEMBL2074444, “A comparison of commonly used polyethoxylated pharmaceutical excipients on their ability to inhibit P-glycoprotein activity in vitro” (J Pharm Sci, 2002).
